Measured values: the NIST ThermoML archive (doi:10.1007/s10765-006-0079-5)

Settings: Liquid, Pulse-echo method

CCCCCCCCC [nonane]
speed of sound [m/s]
Settings	293.15 K	313.15 K	333.15 K	353.15 K	373.15 K	393.15 K
100 kPa	1226.4	1146.2	1068.2	992.62	922.16	–
10000 kPa	1288	1212.8	1140.9	1072.6	1005	946.87
20000 kPa	1344.8	1274.2	1206.9	1142.6	1081.3	1022.9
30000 kPa	1396.9	1329.8	1266.2	1205.6	1148.1	1093.7
40000 kPa	1445.1	1380.9	–	1262.5	1208	1156.6
50000 kPa	1490.1	1428.3	1369.8	1314.6	1262.5	1213.6
60000 kPa	1532.5	1472.7	1416.3	1363.2	1313.1	1266.1
70000 kPa	1572.5	1514.7	1460.1	1408.5	1360.1	1314.7
80000 kPa	1610.6	1554.4	1501.3	1451.3	1404.3	1360.4
90000 kPa	1646.9	1592	1540.3	1491.7	1446.1	1403.3
100000 kPa	1681.6	1628	1577.4	1529.8	1485.5	1443.7
